Reference: PubChem BioAssay (NCI)
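Step 1: Grow cells in 96-well plates. Step 2: Expose to compound for 48 hours at 5 concentrations. Step 3: Interpolate endpoints linearly; if unreached, use highest concentration. GI50 is the concentration that inhibits growth by half. At the TGI there is no net growth.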

Tests used:
Assay in all cases: NCI-60 cell line screen, 48 h
[1] = test system: HCC-2998 colon
[2] = test system: OVCAR-4 ovarian
[3] = test system: RPMI-8226 leukemia
[4] = test system: SF-268 CNS
[5] = test system: NCI-H460 lung
[6] = test system: SNB-19 CNS
[7] = test system: HCT-116 colon
[8] = test system: UACC-62 melanoma
[9] = test system: COLO 205 colon
[10] = test system: ACHN renal
[11] = test system: MCF7 breast
[12] = test system: SNB-75 CNS
[13] = test system: KM12 colon
[14] = test system: HL-60(TB) leukemia
[15] = test system: SK-MEL-5 melanoma
[16] = test system: SR leukemia
[17] = test system: SK-OV-3 ovarian
[18] = test system: MOLT-4 leukemia
[19] = test system: DU-145 prostate
[20] = test system: A498 renal
[21] = test system: SN12C renal
[22] = test system: CCRF-CEM leukemia
[23] = test system: NCI-H226 lung
[24] = test system: UACC-257 melanoma
[25] = test system: M14 melanoma
[26] = test system: SK-MEL-28 melanoma
[27] = test system: T-47D breast
[28] = test system: 786-0 renal
[29] = test system: OVCAR-8 ovarian
[30] = test system: OVCAR-5 ovarian
[31] = test system: HS 578T breast
[32] = test system: A549 NSCLC
[33] = test system: SW-620 colon
[34] = test system: BT-549 breast
[35] = test system: HT29 colon
[36] = test system: K-562 leukemia
[37] = test system: MALME-3M melanoma
[38] = test system: HOP-62 NSCLC
[39] = test system: MDA-MB-435
[40] = test system: HCT-15 colon
[41] = test system: CAKI-1 renal
[42] = test system: U251 CNS
[43] = test system: HOP-92 NSCLC
[44] = test system: MDA-MB-231 breast
[45] = test system: EKVX NSCLC
[46] = test system: UO-31 renal
[47] = test system: SF-295 CNS
[48] = test system: IGROV1 ovarian
[49] = test system: PC-3 prostate
[50] = test system: SK-MEL-2 melanoma
[51] = test system: LOX IMVI melanoma
[52] = test system: SF-539 CNS
[53] = test system: NCI-H522 lung

CCNC(=O)N1CCc2cc(OC)c(OCCc3ccc(OC)cc3)cc2C1c1ccc([N+](=O)[O-])cc1C (stereo unspecified)
GI50 [1]: 1.95 µM | TGI [1]: > 100 µM | GI50 [2]: 2.8 µM | TGI [2]: > 100 µM | GI50 [3]: 0.631 µM | TGI [3]: 7.14 µM | GI50 [4]: 0.881 µM | TGI [4]: > 100 µM | GI50 [5]: 0.368 µM | TGI [5]: 3.3 µM | GI50 [6]: 1.33 µM | TGI [6]: > 100 µM | GI50 [7]: 0.437 µM | TGI [7]: > 100 µM | GI50 [8]: 0.547 µM | TGI [8]: > 100 µM | GI50 [9]: 0.797 µM | TGI [9]: > 100 µM | GI50 [10]: 0.875 µM | TGI [10]: > 100 µM | GI50 [11]: 0.54 µM | TGI [11]: > 100 µM | GI50 [12]: 0.68 µM | TGI [12]: 6.95 µM | GI50 [13]: 4.64 µM | TGI [13]: > 100 µM | GI50 [14]: 0.608 µM | TGI [14]: 10.6 µM | GI50 [15]: 0.794 µM | TGI [15]: 3.59 µM | GI50 [16]: 0.327 µM | TGI [16]: > 100 µM | GI50 [17]: 2.83 µM | TGI [17]: > 100 µM | GI50 [18]: 0.485 µM | TGI [18]: > 100 µM | GI50 [19]: 1.87 µM | TGI [19]: > 100 µM | GI50 [20]: 1.55 µM | TGI [20]: 6.69 µM | GI50 [21]: 1.84 µM | TGI [21]: > 100 µM | GI50 [22]: 0.662 µM | TGI [22]: > 100 µM | GI50 [23]: 2.09 µM | TGI [23]: > 100 µM | GI50 [24]: 3.54 µM | TGI [24]: > 100 µM | GI50 [25]: 0.759 µM | TGI [25]: > 100 µM | GI50 [26]: 0.869 µM | TGI [26]: > 100 µM | GI50 [27]: 3.34 µM | TGI [27]: > 100 µM | GI50 [28]: 0.619 µM | TGI [28]: > 100 µM | GI50 [29]: 0.812 µM | TGI [29]: > 100 µM | GI50 [30]: 2.14 µM | TGI [30]: > 100 µM | GI50 [31]: 1.57 µM | TGI [31]: 7.35 µM | GI50 [32]: 0.84 µM | TGI [32]: > 100 µM | GI50 [33]: 0.551 µM | TGI [33]: > 100 µM | GI50 [34]: 1.67 µM | TGI [34]: 6.12 µM | GI50 [35]: 0.706 µM | TGI [35]: 6.04 µM | GI50 [36]: 0.381 µM | TGI [36]: > 100 µM | GI50 [37]: 4.12 µM | TGI [37]: > 100 µM | GI50 [38]: 2.28 µM | TGI [38]: > 100 µM | GI50 [39]: 0.491 µM | TGI [39]: > 100 µM | GI50 [40]: 0.382 µM | TGI [40]: > 100 µM | GI50 [41]: 1.09 µM | TGI [41]: > 100 µM | GI50 [42]: 0.58 µM | TGI [42]: > 100 µM | GI50 [43]: 1.04 µM | TGI [43]: 8.03 µM | GI50 [44]: 0.797 µM | TGI [44]: > 100 µM | GI50 [45]: > 100 µM | TGI [45]: > 100 µM | GI50 [46]: 1.54 µM | TGI [46]: > 100 µM | GI50 [47]: 0.576 µM | TGI [47]: > 100 µM | GI50 [48]: 0.759 µM | TGI [48]: > 100 µM | GI50 [49]: 0.559 µM | TGI [49]: > 100 µM | GI50 [50]: 2.37 µM | TGI [50]: > 100 µM | GI50 [51]: 0.387 µM | TGI [51]: 7.65 µM | GI50 [52]: 0.702 µM | TGI [52]: 6.77 µM | GI50 [53]: 0.73 µM | TGI [53]: 3.41 µM
